Reference: patent US20200337311A1 (priority 2017, published 2020)

Key:
Meloidogyne incognita [1] = test: Meloidogyne incognita in vivo test on cucumber plants (gall rating); details: 300 ppm; soil application to cucumber seedlings; 15 days after application; untreated check up to 8
Procedure: (§1) Meloidogyne incognita: In Vivo Test
Cucumber plants were grown in seedling tray containing mixture of Sand:Soil:FYM:Cocopeat in ratio of 1:1:1:1. One mL of test compound at tested concentration was applied into the soil mixture with the help of micropipette when the cucumber seedlings ten days old. Approximately 2000 freshly hatched second-stage juveniles of Meloidogyne incognita were inoculated. The treated plants were allowed to grow at 27° C. temperature in greenhouse. Observation of gall rating was recorded after 15 days of application. Plants were carefully uprooted and roots were washed thoroughly. The gall rating was observed on 0-10 scale as described by Zeck (1971) as mentioned below: • 0=no galls • 1=very few small galls • 2=numerous small galls • 3=numerous small galls of which some are grown together • 4=numerous small and some big galls • 5=25% of roots severely galled • 6=50% of roots severely galled • 7=75% of roots severely galled • 8=no healthy roots but plant is still green • 9=roots rotting and plant dying • 10=plant and roots dead
recorded less than 3 gall rating in the tests, where there was extensive galling (up to 8) in untreated check.

Meloidogyne incognita [2] = test: Meloidogyne incognita (root-knot nematode) in vitro test; details: 300 ppm; 50 juveniles in 500 μL water, 25° C.; counted at 48, 72 and 96 h; no mortality in untreated check
Procedure: Example 1: Meloidogyne incognita (Root-Knot Nematode): In Vitro Test
The test compounds at a concentration of 300 ppm were introduced into 500 μL of distilled water containing 50 Meloidogyne incognita juveniles into 24-well plates. The suspension was lightly shaken for uniform mixing of compounds. The test plates were covered with lids, and were kept for incubation at 25° C. temperature and 90% relative humidity. […] Compounds
as §1

Q: Which “gall rating (0-10 scale, Zeck 1971)” value (Meloidogyne incognita [1]) does the source give for `Cc1nc(S(=O)(=O)CCC(F)=C(F)F)sc1C#N` [Compound 339] here?
A: < 3

Q: With `Cc1nc([S+]([O-])CCC(F)=C(F)F)sc1C#N` (stereo not drawn) [Compound 338] as the compound, how does the “gall rating (0-10 scale, Zeck 1971)” value (Meloidogyne incognita [1]) read?
A: < 3

Q: For `CCO/N=C\c1cnc(S(=O)(=O)CCC=C(F)F)s1` [Compound 233], which “gall rating (0-10 scale, Zeck 1971)” value (Meloidogyne incognita [1]) is on record?
A: < 3

Q: Which “gall rating (0-10 scale, Zeck 1971)” value (Meloidogyne incognita [1]) does the source give for `FC(F)=C(F)CCSc1ncc(C(F)F)o1` [Compound 330] here?
A: < 3

Q: With `CO/N=C/c1cnc(SCCC=C(F)F)o1` [Compound 290] as the compound, how does the mortality (Meloidogyne incognita [2]) read?
A: > 90%

Q: `CO/N=C(/c1oc([S+]([O-])CCC(F)=C(F)F)nc1C)C(C)C` (stereo not drawn) [Compound 273] was tested. Which “gall rating (0-10 scale, Zeck 1971)” value (Meloidogyne incognita [1]) did it give?
A: < 3

Q: `CCO/N=C/c1cnc(S(=O)(=O)CCC(F)=C(F)F)s1` [Compound 23] was tested. Which “gall rating (0-10 scale, Zeck 1971)” value (Meloidogyne incognita [1]) did it give?
A: < 3

Q: With `CO/N=C\c1cnc(S(=O)(=O)CCC=C(F)F)s1` [Compound 236] as the compound, how does the “gall rating (0-10 scale, Zeck 1971)” value (Meloidogyne incognita [1]) read?
A: < 3

Q: With `CO/N=C/c1oc(SCCC(F)=C(F)F)nc1C` [Compound 238] as the compound, how does the “gall rating (0-10 scale, Zeck 1971)” value (Meloidogyne incognita [1]) read?
A: < 3

Q: `Cc1nc([S+]([O-])CCC(F)=C(F)F)oc1C#N` (stereo not drawn) [Compound 348] was tested. Which “gall rating (0-10 scale, Zeck 1971)” value (Meloidogyne incognita [1]) did it give?
A: < 3

Q: How did the “gall rating (0-10 scale, Zeck 1971)” value (Meloidogyne incognita [1]) turn out when `Cc1nc([S+]([O-])CCC(F)=C(F)F)sc1C(F)F` (stereo not drawn) [Compound 337] was run?
A: < 3

Q: How did the “gall rating (0-10 scale, Zeck 1971)” value (Meloidogyne incognita [1]) turn out when `O=S(=O)(CCC(F)=C(F)F)c1ncc(C(F)F)s1` [Compound 329] was run?
A: < 3

Q: How did the “gall rating (0-10 scale, Zeck 1971)” value (Meloidogyne incognita [1]) turn out when `[O-][S+](CCC(F)=C(F)F)c1ncc(C(F)F)s1` (stereo not drawn) [Compound 326] was run?
A: < 3

Q: How did the “gall rating (0-10 scale, Zeck 1971)” value (Meloidogyne incognita [1]) turn out when `[O-][S+](CCC(F)=C(F)F)c1ncc(-c2ncon2)s1` (stereo not drawn) [Compound 213] was run?
A: < 3

Q: `CCO/N=C/c1cnc(S(=O)(=O)CCC=C(F)F)s1` [Compound 237] was tested. Which “gall rating (0-10 scale, Zeck 1971)” value (Meloidogyne incognita [1]) did it give?
A: < 3

Q: How did the “gall rating (0-10 scale, Zeck 1971)” value (Meloidogyne incognita [1]) turn out when `Cc1csc(S(=O)(CCC(F)=C(F)F)=NC#N)n1` (stereo not drawn) [Compound 183] was run?
A: < 3

Q: `N#Cc1cnc(SCCC(F)=C(F)F)o1` [Compound 331] was tested. Which “gall rating (0-10 scale, Zeck 1971)” value (Meloidogyne incognita [1]) did it give?
A: < 3

Q: Which “gall rating (0-10 scale, Zeck 1971)” value (Meloidogyne incognita [1]) does the source give for `Cc1nc(S(=O)(=O)CCC(F)=C(F)F)sc1C(F)F` [Compound 340] here?
A: < 3

Q: Which “gall rating (0-10 scale, Zeck 1971)” value (Meloidogyne incognita [1]) does the source give for `N#Cc1cnc(S(=O)(=O)CCC(F)=C(F)F)s1` [Compound 332] here?
A: < 3

Q: `CO/N=C(/C)c1cnc(S(=O)(=O)CCC(F)=C(F)F)o1` [Compound 134] was tested. Which “gall rating (0-10 scale, Zeck 1971)” value (Meloidogyne incognita [1]) did it give?
A: < 3

Q: For `CO/N=C\c1cnc(SCCC=C(F)F)s1` [Compound 235], which “gall rating (0-10 scale, Zeck 1971)” value (Meloidogyne incognita [1]) is on record?
A: < 3

Q: `CCO/N=C/c1cnc([S+]([O-])CCC(F)=C(F)F)o1` (stereo not drawn) [Compound 36] was tested. Which “gall rating (0-10 scale, Zeck 1971)” value (Meloidogyne incognita [1]) did it give?
A: < 3

Q: With `N#Cc1cnc(SCCC(F)=C(F)F)s1` [Compound 327] as the compound, how does the “gall rating (0-10 scale, Zeck 1971)” value (Meloidogyne incognita [1]) read?
A: < 3

Q: Which “gall rating (0-10 scale, Zeck 1971)” value (Meloidogyne incognita [1]) does the source give for `CO/N=C(\C)c1cnc(S(=O)(=O)CCC(F)=C(F)F)s1` [Compound 53] here?
A: < 3

Q: `N#Cc1cnc([S+]([O-])CCC(F)=C(F)F)o1` (stereo not drawn) [Compound 333] was tested. Which “gall rating (0-10 scale, Zeck 1971)” value (Meloidogyne incognita [1]) did it give?
A: < 3

Q: `CC(C)CCO/N=C/c1cnc(SCCC(F)=C(F)F)s1` [Compound 34] was tested. Which “gall rating (0-10 scale, Zeck 1971)” value (Meloidogyne incognita [1]) did it give?
A: < 3

Q: For `CCO/N=C\c1cnc(SCCC(F)=C(F)F)o1` [Compound 13], which “gall rating (0-10 scale, Zeck 1971)” value (Meloidogyne incognita [1]) is on record?
A: < 3

Q: `[O-][S+](CCC(F)=C(F)F)c1ncc(/C=N\OCC2CC2)o1` (stereo not drawn) [Compound 103] was tested. Which “gall rating (0-10 scale, Zeck 1971)” value (Meloidogyne incognita [1]) did it give?
A: < 3

Q: How did the “gall rating (0-10 scale, Zeck 1971)” value (Meloidogyne incognita [1]) turn out when `CO/N=C(\C)c1cnc([S+]([O-])CCC(F)=C(F)F)o1` (stereo not drawn) [Compound 130] was run?
A: < 3

Q: Which “gall rating (0-10 scale, Zeck 1971)” value (Meloidogyne incognita [1]) does the source give for `CCO/N=C(\C)c1cnc(SCCC(F)=C(F)F)o1` [Compound 132] here?
A: < 3

Q: How did the “gall rating (0-10 scale, Zeck 1971)” value (Meloidogyne incognita [1]) turn out when `CO/N=C/c1cnc(SCCC=C(F)F)s1` [Compound 234] was run?
A: < 3

Q: For `N#Cc1cnc([S+]([O-])CCC(F)=C(F)F)s1` (stereo not drawn) [Compound 328], which “gall rating (0-10 scale, Zeck 1971)” value (Meloidogyne incognita [1]) is on record?
A: < 3

Q: How did the “gall rating (0-10 scale, Zeck 1971)” value (Meloidogyne incognita [1]) turn out when `Cc1nc(S(=O)(=O)CCC(F)=C(F)F)oc1C(F)F` [Compound 350] was run?
A: < 3
